Test [1] has as its target T1, phosphorylated Tie-2 (aa 775-1122) (Homo sapiens, UniProt Q02763).
T1 construct: 4 to 12 nM phosphorylated Tie-2 (aa 775-1122); made in house; host or cells: insect cells
Description: TIE-2 spectrophotometric assay. To be noted: for inhibition at 1 µM: read-out: % Inhibition @ 1 µM Tie2-P; for inhibition at 10 µM: read-out: % Inhibition Tie2-P, compound tested at 10 µM. Format: biochemical. On the procedure:
This construct also carries a R774M mutation, which serves as the initiating methionine residue in translation.
The kinase-catalyzed production of ADP from ATP that accompanies phosphoryl transfer to the random copolymer poly(Glu4 Tyr) was coupled to the oxidation of NADH through the activities of pyruvate kinase (PK) and lactate dehydrogenase (LDH). NADH conversion to NAD* was monitored by the decrease in absorbance at 340 nm (ε = 6.22 cm^-1mM^-1) using a Beckman DU650 spectrophotometer. Typical reaction solutions contained 1 mM phosphoenolpyruvate, 0.24 mM NADH, 40 mM MgCl2, 5 mM DTT, 2.9 mg/mL poly(Glu4Tyr), 0.5 mM ATP, 15 units/mL PK, 15 units/mL LDH in 100 mM HEPES, pH 7.5. […]

A further test addresses T2, human CHK1 (FL-CHK1) (Homo sapiens, UniProt O14757).
T2 construct: C-terminally His-tagged full-length human CHK1 (FL-CHK1) was expressed using the baculovirus/insect cell system; made in house; host or cells: baculovirus/insect cell system
T2 sequence (O14757 1-476): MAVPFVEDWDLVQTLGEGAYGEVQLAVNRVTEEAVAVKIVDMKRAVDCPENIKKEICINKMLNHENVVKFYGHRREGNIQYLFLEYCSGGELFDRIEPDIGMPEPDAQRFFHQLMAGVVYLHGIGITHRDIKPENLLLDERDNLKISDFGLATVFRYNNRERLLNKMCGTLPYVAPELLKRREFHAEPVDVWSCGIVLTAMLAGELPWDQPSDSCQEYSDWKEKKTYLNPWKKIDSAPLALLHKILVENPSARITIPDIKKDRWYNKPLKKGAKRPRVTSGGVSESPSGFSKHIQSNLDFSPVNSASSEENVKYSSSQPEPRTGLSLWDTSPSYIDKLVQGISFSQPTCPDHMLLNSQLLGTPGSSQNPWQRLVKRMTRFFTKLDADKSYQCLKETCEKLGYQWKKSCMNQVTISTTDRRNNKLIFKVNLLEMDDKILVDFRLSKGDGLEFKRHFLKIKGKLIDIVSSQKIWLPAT
Put plainly: CHK1 coupled spectrophotometric assay. In kind it is biochemical. An excerpt: CHK1 Construct for Assay: C-terminally His-tagged full-length human CHK1 (FL-CHK1) was expressed using the baculovirus/insect cell system. […] The protein was purified by conventional chromatographic techniques.
The production of ADP from ATP that accompanies phosphoryl transfer to the synthetic substrate peptide Syntide-2 ([…]) was coupled to oxidation of NADH using phosphoenolpyruvate (PEP) through the actions of pyruvate kinase (PK) and lactic dehydrogenase (LDH). The oxidation of NADH was monitored by following the decrease of absorbance at 340 nm (∈340 = 6.22 cm^-1 mM^-1) using a HP8452 spectrophotometer. […] Assays were initiated with 10 nM of FL-CHK1. Ki values were determined by measuring initial enzyme activity in the presence of varying concentrations of test compounds. The data were analyzed using Enzyme Kinetic and Kaleidagraph software.

Another test addresses human FGF-R1 (Homo sapiens, UniProt P11362, C488A/C584S/L457V). Put plainly: FGF-R spectrophotometric assay. In kind it is biochemical. The conditions noted are these: read-out: FGF* (% inhibition). The procedure:
The spectrophotometric assay was carried out as described above for VEGF-R2, except for the following changes in concentration: FGF-R = 50 nM, ATP = 2 mM, and poly(E4Y1) =15 mM.

For another test, the target named is LCK tyrosine kinase (Homo sapiens, UniProt P06239, C224D/P223M). Put plainly: LCK spectrophotometric assay. In kind it is biochemical. The conditions noted are these: read-out: Lck* (% inhibition). The procedure:
The spectrophotometric assay was carried out as described above for VEGF-R2, except for the following changes in concentration: LCK = 60 nM, MgCl2 = 0 mM, poly(E4Y1) = 20 mM.

In test [2] the test system is human umbilical vein endothelial cells (HUVEC). Put plainly: HUVEC proliferation assay (VEGF-stimulated, MTT). Format: cell-based. To be noted: Homo sapiens, HUVEC, Table 1; read-out: HUVEC IC50.
Where [3] appears, read: Table 5, 1 µM, bold values spectrophotometric assay, non-bolded DELFIA assay (bold not visible here).
Setting [4] is: read-out: CHK-1* (% inhibition @ 50 µM).

The source of these data is patent publication EP1614683B1, “Indazole compounds and pharmaceutical compositions for inhibiting protein kinases, and methods for their use” (priority 1999, dated 2001).

Where two headings read alike, the source gives them in different places.

Sequence of human FGF-R1 (P11362 456-766 L457V/C488A/C584S): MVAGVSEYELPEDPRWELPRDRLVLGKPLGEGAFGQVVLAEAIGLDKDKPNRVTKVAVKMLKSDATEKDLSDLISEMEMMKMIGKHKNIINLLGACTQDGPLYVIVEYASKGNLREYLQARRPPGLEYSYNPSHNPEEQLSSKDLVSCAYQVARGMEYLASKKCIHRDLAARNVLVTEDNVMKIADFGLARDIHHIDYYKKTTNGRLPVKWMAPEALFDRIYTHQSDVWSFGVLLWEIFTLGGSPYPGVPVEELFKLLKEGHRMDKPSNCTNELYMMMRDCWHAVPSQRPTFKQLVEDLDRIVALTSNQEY
Sequence of LCK tyrosine kinase (P06239 223-509 P223M/C224D): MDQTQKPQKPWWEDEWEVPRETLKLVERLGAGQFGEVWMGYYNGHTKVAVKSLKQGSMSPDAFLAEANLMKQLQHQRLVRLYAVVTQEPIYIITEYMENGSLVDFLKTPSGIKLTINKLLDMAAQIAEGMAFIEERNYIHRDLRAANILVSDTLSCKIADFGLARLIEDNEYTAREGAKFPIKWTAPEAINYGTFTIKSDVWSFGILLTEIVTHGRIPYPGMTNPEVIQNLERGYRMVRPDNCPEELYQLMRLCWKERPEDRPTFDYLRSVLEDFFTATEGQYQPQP
T1 sequence (Q02763 775-1122): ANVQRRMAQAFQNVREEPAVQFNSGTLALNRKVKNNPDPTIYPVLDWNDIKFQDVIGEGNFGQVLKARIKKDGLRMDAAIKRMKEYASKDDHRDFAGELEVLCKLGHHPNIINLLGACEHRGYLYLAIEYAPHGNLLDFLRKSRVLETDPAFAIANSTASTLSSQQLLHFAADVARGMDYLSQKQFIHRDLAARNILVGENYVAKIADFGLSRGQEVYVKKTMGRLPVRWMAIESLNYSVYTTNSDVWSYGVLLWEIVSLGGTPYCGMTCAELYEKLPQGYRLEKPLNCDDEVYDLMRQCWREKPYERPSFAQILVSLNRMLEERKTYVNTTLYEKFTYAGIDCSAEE

Take `O=C(c1ccccc1)c1ccc2c(/C=C/c3ccccc3)n[nH]c2c1` [Example 17, Phenyl-(3-styryl-1H-indazol-6-yl)-methanone]: the inhibition at 1 µM in test [1] came out at 50%. As to `Cc1c(O)ccc(NC(=O)c2ccc3c(-c4nc5ccccc5[nH]4)n[nH]c3c2)c1C` [Example 53(d), 3-(1H-benzoimidazol-2-yl)-N-(4-hydroxy-2,3-dimethylphenyl)-1H-indazole-6-carboxamide], the “CHK-1* (inhibition @ 100 µM)” value at human CHK1 (FL-CHK1) (Table 3; @ 100 µM; NI = no significant inhibition) was “Nl @ 100 µM”.

Regarding `COc1cc(O)ccc1-c1ccc2c(-c3nc4c(N5CCN(C)CC5)cccc4[nH]3)n[nH]c2c1` [Reference Example 25(d)], the inhibition at 1 µM on human FGF-R1 is 80%; on LCK tyrosine kinase, 60%; on human CHK1 (FL-CHK1) (read-out: CHK1* (% inhibition)), 87%. As to `COc1ccc(-c2ccc3c(/C=C/c4ccccc4)n[nH]c3c2)cc1` [Reference Example 27(c)], the inhibition at 5 µM at human CHK1 (FL-CHK1) (read-out: CHK-1* (% inhibition @ 5 µM)) came to 11%. In the case of `COc1cc(O)ccc1-c1ccc2c(-c3nc4ccc(N5CCN(C)CC5)cc4[nH]3)n[nH]c2c1` [Reference Example 25(c), 3-[6-(4-methylpiperazin-1-yl)-1H-benzoimidazol-2-yl]-6-(2-methoxy-4-hydroxyphenyl)-1H-indazole], the results for the inhibition at 1 µM on human FGF-R1 and at human CHK1 (FL-CHK1) (read-out: CHK1* (% inhibition)) were 96% and 90%, respectively.

As for `Fc1ccc(F)c(/C=C/c2n[nH]c3cc(-c4ccncc4)ccc23)c1` [Reference Example 29(s), 6-pyrid-4-yl-3-E-[2-(2,5-difluorophenyl)ethenyl]-1H-indazole], at human CHK1 (FL-CHK1) (read-out: CHK-1* (Ki); Table 3), the inhibitory constant (Ki) stood at 11 µM. For “3-(1H-benzoimidazol-2-yl)-N-(4-hydroxy-3-methylphenyl)-1H-indazole-6-carboxamide [Example 53(c)]”, on human CHK1 (FL-CHK1) (Table 3; read-out: CHK-1* (Ki)), the inhibition constant (Ki) worked out at 1.1 µM. Regarding `C(=C\c1n[nH]c2cc(-c3cccc4ccccc34)ccc12)/c1ccccc1` [Reference Example 27(d)], the inhibition at 10 µM on human CHK1 (FL-CHK1) (read-out: CHK-1* (% inhibition @ 10 µM)) came to 14%. For the molecule `COc1cc(O)ccc1-c1ccc2c(-c3nc4ccc(C(=O)NCCN5CCOCC5)cc4[nH]3)n[nH]c2c1` [Reference Example 25(b), 3-[6-(2-morpholin-4-yl-ethylcarbamoyl)-1H-benzoimidazol-2-yl]-6-(2-methoxy-4-hydroxyphenyl)-1H-indazole], the inhibition at 1 µM at human FGF-R1 is 87%; at LCK tyrosine kinase it was 87%; on human CHK1 (FL-CHK1) (read-out: CHK1* (% inhibition)), 83%.

As for `COc1cc(O)ccc1-c1ccc2c(-c3nc4ccncc4[nH]3)n[nH]c2c1` [Reference Example 25(a), 3-(3H-Imidazo[4,5-c]pyridin-2-yl)-6-(4-hydroxy-2-methoxyphenyl)-1H-indazole], the results for the inhibition at 1 µM at human FGF-R1, on LCK tyrosine kinase and at human CHK1 (FL-CHK1) (read-out: CHK1* (% inhibition)) were 62%, 44% and 49%, respectively.

For the molecule `C=C(c1cccc(NC(=O)c2ncc(C)s2)c1)c1ccc2c(/C=C/c3ccccc3)n[nH]c2c1` [22(a), 6-(1-(3-(5-Methyl-thiaxole-2-carboxoylamido)phenyl)-vinyl)-3-styryl-1H-indazole], in test [1] (setting [3]), the inhibition at 1 µM turned out to be 8%. For the same molecule, in test [2], the half-maximal inhibitory concentration (IC50) worked out at 0.012 µM. For `CSc1cc(O)ccc1-c1ccc2c(-c3nc4ccccc4[nH]3)n[nH]c2c1` [Reference Example 24(k), 3-1H-Benzoimidazol-2-yl-6.(2-methylsulfanyl-4-hydroxyphenyl}-1H-indazole], the values for the inhibition at 1 µM at LCK tyrosine kinase and on human CHK1 (FL-CHK1) (read-out: CHK1* (% inhibition)) were 89% and 81%, respectively. Take `COc1cc(O)ccc1-c1ccc2c(-c3nc4cc(N(C)C)ccc4[nH]3)n[nH]c2c1` [Reference Example 25(h), 3-(5-Dimethylamino-1H-benzoimidazol-2-yl)-6-(2-methoxy-4-hydroxy-phenyl)-1H-indazole]: the inhibition at 1 µM was found to be 91% at human FGF-R1, 87% on LCK tyrosine kinase and 86% on human CHK1 (FL-CHK1) (read-out: CHK1* (% inhibition)). Turning to `C=C(c1ccccc1)c1ccc2c(/C=C/c3ccccc3)n[nH]c2c1` [Example 10, 6-(1-Phenyl-vinyl)-3-styryl-1H-indazole], the inhibition at 10 µM in test [1] came to 20%. Moreover, the IC50 in test [2] is more than 0.7 µM.

Take `Cc1cc(O)ccc1-c1ccc2c(-c3nc4ccccc4[nH]3)n[nH]c2c1` [24(b), 4-[3-(1-H-Benzoimidazol-2-yl)-1-H-indazol-6-yl]-3-methylphenol]: the inhibition at 1 µM at human FGF-R1 was 88%; on LCK tyrosine kinase it was 96%. In addition, in test [1], the inhibition at 10 µM is 92%. On to `COc1cc(-c2ccc3c(-c4nc5ccccc5[nH]4)n[nH]c3c2)c(C)cc1O` [24(a), 4-[3-(1-H-Benzoimidazol-2-yl)-1-H-indazol-6-yl]-2-methoxy-5-methyl-phenol], for which the results for the inhibition at 1 µM on human FGF-R1 and on LCK tyrosine kinase were 72% and 67%, respectively. Also, in test [1], the inhibition at 10 µM was 91%.

As for `COc1cc(O)ccc1-c1ccc2c(-c3ncc[nH]3)n[nH]c2c1` [Reference Example 25(e), 3-imidazol-2-yl-6-(2-methoxy-4-hydroxyphenyl)-1H-indazole], the inhibition at 1 µM at human FGF-R1 is 26%; at LCK tyrosine kinase it was 13%; on human CHK1 (FL-CHK1) (read-out: CHK1* (% inhibition)), 16%. In the case of `COCOc1ccc(Oc2ccc3c(/C=C/c4ccccc4)n[nH]c3c2)cc1` [8(b), 3-(E-styryl)-6-[4-(methoxymethoxy)phenoxy]-1H-indazole], the inhibition at 50 µM at human CHK1 (FL-CHK1) (setting [4]) turned out to be 12%. As for `COc1ccc(-c2ccc3c(/C=C/c4ccccc4)n[nH]c3c2)cc1OC` [Reference Example 27(j)], at human CHK1 (FL-CHK1) (setting [4]), the inhibition at 50 µM stood at 15%. Turning to `C=C(c1cccc(N)c1)c1ccc2c(/C=C/c3ccccc3)n[nH]c2c1` [Example 21, 6-(1-(3-Aminophenyl)-vinyl)-3-styryl-1H-indazole], in test [1] (setting [3]), the inhibition at 1 µM turned out to be 27%. Also, the IC50 in test [2] was more than 0.7 µM. With `Clc1cccc(Cl)c1/C=C/c1n[nH]c2cc(-c3ccncc3)ccc12` [Reference Example 29(a), 6-pyrid-4-yl-3-E-[2-(2,6-dichlorophenyl)ethenyl]-1H-indazole], the “CHK-1* (inhibition @ 25 µM)” value on human CHK1 (FL-CHK1) (Table 3; @ 25µM; NI = no significant inhibition) was “Nl @ 25µM”. For the molecule `CN(c1cccc(NC(=O)OCc2ccccc2)c1)c1ccc2c(/C=C/c3ccccc3)n[nH]c2c1` [12(c), {3-[Methyl-(3-styryl-1H-indazol-6-yl)-amino]-phenyl}-carbamic acid benzyl ester], the inhibition at 1 µM in test [1] (setting [3]) worked out at 17%. `Oc1ccc(Oc2ccc3c(/C=C/c4ccccc4)n[nH]c3c2)cc1` [9(b), 3-(E-styryl)-6-[4-hydroxyphenoxy]-1H-indazole]: the inhibition at 10 µM in test [1] worked out at 88%. With `Oc1ccc(-c2ccc3c(-c4cc5ccccc5o4)n[nH]c3c2)cc1OCc1ccccc1` [2(e), 3-(Benzofuran-2-yl)-6-(3-benzyloxy-4-hydroxy-phenyl)-1H-indazole], the inhibition at 20 µM on human CHK1 (FL-CHK1) (read-out: CHK -1* (% inhibition @ 20 µM)) stood at 5%. With `COc1cccc(-c2ccc3c(/C=C/c4ccccc4)n[nH]c3c2)c1` [Reference Example 27(b)], the inhibition at 50 µM at human CHK1 (FL-CHK1) (setting [4]) was determined as 28%. For the molecule `CN(c1ccccc1)c1ccc2c(/C=C/c3ccccc3)n[nH]c2c1` [Example 14, Methyl-phenyl-(3-styryl-1H-indazol-6-yl)-amine], on human CHK1 (FL-CHK1) (read-out: CHK -1* (% inhibition @ 25 µM)), the inhibition at 25 µM was found to be 12%.

Turning to `CN(c1cccc(N)c1)c1ccc2c(/C=C/c3ccccc3)n[nH]c2c1` [Example 11, N-Methyl-N-(3-styryl-1H-indazol-6-yl)-benzene-1,3-diamine], the inhibition at 1 µM in test [1] (setting [3]) was found to be 40%.

Usually inhibition stands for the percentage by which the read-out fell short of the control. The Ki is the dissociation constant of the complex between target and ligand, obtained from inhibition or displacement. Usually IC50 stands for the concentration that inhibits the measured activity by half.
